Tests used:
[1] = test system: recombinant CSN complex; test: Peptide array screen of C-CSNAP peptides with recombinant CSN (rCSN^WT); assay type: binding; conditions: for Average fold change, intensities as fold of C-CSNAP (A1): rCSN^WT on INTAVIS Celluspots array, anti-CSN3 and HRP secondary antibody, average of six replicates (three independent experiments in duplicates); for Average fold change: peptide array with rCSN, average of 3 experiments, left and right (n = 6), fold of C-CSNAP (A1);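 on all read-outs here: densitometric signal of CSN bound to each synthesized peptide spot, with an antibody-only array lacking CSN run to exclude non-specific binding, higher values meaning stronger binding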
Description: To generate an optimized C-CSNAP peptide, we used the peptide array methodology. The array was designed to screen for the optimal peptide length, sequence, and stability (Fig 3A). A recombinant CSN complex was expressed, purified, and screened for binding to the peptide array by using an anti-CSN3 antibody. To rule out non-specific binding of the probing antibody, a control experiment was carried out without the addition of the CSN complex (Fig 3A right panel).
C-CSNAP peptide and its derivatives were synthesized on a microarray. The array was blocked and incubated with or without the COP9 signalosome complex (CSN) and probed using an anti-CSN3 antibody and HRP-conjugated secondary antibody. To assess non-specific binding of the antibodies to the array, anti-CSN3 and anti-GAR–HRP were used without the addition of the CSN. Signal intensity of each spot was measured and normalized to the intensity of the spot of C-CSNAP (A1). Measured values for each spot were averaged from six arrays and plotted with SEM. […] (A) A representative image of the peptide array (left) and the background (right). (B) Elongation of the C-terminal 16 amino acids (green) with one residue at a time based on the full-length sequence. […] (F) Single D-amino acid substitution at various positions.
(§1) Intensity values are normalized to the intensity of the 16AA C-CSNAP peptide (A1) on each array from three independent experiments in duplicates, and averages from the six replicates are calculated with SEM.
(§2) Optimization of C-CSNAP sequence for enhanced binding to recombinant CSN^ΔCSNAP was screened by printing the modified sequences of CSNAP or C-CSNAP (Phe to Trp, Asp to Glu, Ala screen, D-amino acid screen, N-α-methylation, and Aib incorporation on INTAVIS Celluspots array [2 × 384spots]). The array was blocked with 5% skim milk in TBS-0.5% Tween 20 (TBS-T) for 4 h at room temperature, washed three times in TBS-T, and then incubated with 0.5 μM CSN^ΔCSNAP in 5% milk–TBS-T. Bound CSN^ΔCSNAP was visualized by incubating with anti-CSN3 (ab79698) antibody (1:10,000, overnight) and goat-anti-rabbit-HRP secondary antibody (1:10,000, 1 h).

[2] = test system: CSN^ΔCSNAP complex; test: Peptide array screen of C-CSNAP peptides with rCSN^ΔCSNAP; assay type: binding; conditions: average of 5 experiments;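 further: Array-printed peptides incubated with 0.5 µM CSN^ΔCSNAP, bound complex detected by anti-CSN3 antibody plus HRP-linked secondary, spot intensity expressed relative to the parent reference peptide spot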
Description: Peptide array screen of modified C-CSNAP peptides. C-CSNAP peptide and its derivatives were printed on a microarray. The array was blocked and incubated with or without the CSN∆CSNAP complex and probed using an anti-CSN3 antibody and HRP-conjugated secondary antibody. To assess non-specific binding of the antibodies to the array, anti-CSN3 and anti-GAR-HRP were used without the addition of the COP9 signalosome complex (CSN). Signal intensity of each spot was measured and normalized to the intensity of the spot of C-CSNAP (A1). Measured values for each spot were averaged from six arrays and plotted with standard errors SEM.
as §1, §2

[3] = peptide array, rCSN^ΔCSNAP, left and right spots
[4] = peptide array with rCSN^ΔCSNAP, left and right (n = 10), fold of C-CSNAP (A1)

| Sequence | Average fold change, intensities as fold of C-CSNAP (A1) [1] | Average fold change [2, 3] | Average fold change [1] | Average fold change [2, 4] |
| --- | --- | --- | --- | --- |
| DFFNEFEDLFDDDDIQ [D 4, C-CSNAP, Asp to Glu substitution D46E] | 1.0255 fold of C-CSNAP (A1) | 1.0457 fold of C-CSNAP (A1) | – | – |
| DFFNEFEDLFDDDEIQ [Position D20, C-CSNAP, Asp to Glu substitution D46,55E] | 0.7799 fold of C-CSNAP (A1) | 1.3581 fold of C-CSNAP (A1) | – | – |
| DFFNEFEDLFDDEDIQ [Position D19, C-CSNAP, Asp to Glu substitution D46,54E] | 0.6165 fold of C-CSNAP (A1) | 1.1127 fold of C-CSNAP (A1) | – | – |
| DFFNEFEDLFDEDDIQ [Position D18, C-CSNAP, Asp to Glu substitution D46,53E] | 0.5559 fold of C-CSNAP (A1) | 1.0532 fold of C-CSNAP (A1) | – | – |
| DFFNEFEDLFEDDDIQ [Position D17, C-CSNAP, Asp to Glu substitution D46,52E] | 0.7655 fold of C-CSNAP (A1) | 1.1441 fold of C-CSNAP (A1) | – | – |
| DFFNEFEELFDDDDIQ [Position D16, C-CSNAP, Asp to Glu substitution D46,49E] | 0.7250 fold of C-CSNAP (A1) | 1.2614 fold of C-CSNAP (A1) | – | – |
| DFFNEFEELFDDDEIQ [Position E16, C-CSNAP, Asp to Glu substitution D46,49,55E] | 0.6983 fold of C-CSNAP (A1) | 0.9545 fold of C-CSNAP (A1) | – | – |
| DFFNEFEELFDDEDIQ [Position E15, C-CSNAP, Asp to Glu substitution D46,49,54E] | 0.5680 fold of C-CSNAP (A1) | 0.8747 fold of C-CSNAP (A1) | – | – |
| DFFNEFEELFDEDDIQ [Position E14, C-CSNAP, Asp to Glu substitution D46,49,53E] | 0.6197 fold of C-CSNAP (A1) | 0.9920 fold of C-CSNAP (A1) | – | – |
| DFFNEFEELFDEEEIQ [D46,49,53,54,55E] | – | 1.4630 fold of C-CSNAP (A1) | 0.6202 fold | – |
| DFFNEFEELFEDDDIQ [Position E13, C-CSNAP, Asp to Glu substitution D46,49,52E] | 0.6592 fold of C-CSNAP (A1) | 1.2426 fold of C-CSNAP (A1) | – | – |
| DFFNEFEELFEDDEIQ [D46,49,52,55E] | – | 1.1176 fold of C-CSNAP (A1) | 0.6253 fold | – |
| DFFNEFEELFEDEDIQ [D46,49,52,54E] | – | 0.9254 fold of C-CSNAP (A1) | 0.5934 fold | – |
| DFFNEFEELFEDEEIQ [D46,49,52,54,55E] | – | 1.2301 fold of C-CSNAP (A1) | 0.5968 fold | – |
| DFFNEFEELFEEDDIQ [D46,49,52,53E] | – | 0.8013 fold of C-CSNAP (A1) | 0.5885 fold | – |
| DFFNEFEELFEEDEIQ [D46,49,52,53,55E] | – | 1.1600 fold of C-CSNAP (A1) | 0.5677 fold | – |
| DFFNEFEELFEEEDIQ [D46,49,52,53,54E] | – | 1.3745 fold of C-CSNAP (A1) | 0.5724 fold | – |
| DFFNEFEELFEEEEIQ [D46,49,52,53,54,55E] | – | 1.0133 fold of C-CSNAP (A1) | 0.5470 fold | – |
| DFWNDFEDLFDDDDIQ [Position C13, C-CSNAP, Phe to Trp substitution F44W] | 0.8173 fold of C-CSNAP (A1) | 1.2883 fold of C-CSNAP (A1) | – | – |
| DFWNDWEDLWDDDDIQ [Position C22, C-CSNAP, Phe to Trp substitution F44,47,51W] | 0.6112 fold of C-CSNAP (A1) | 1.2126 fold of C-CSNAP (A1) | – | – |
| DLAANEKAVHADFFNDFEDLFDDDDIQ [Position A12, CSNAP residues 31-57] | 0.9978 fold of C-CSNAP (A1) | – | – | 1.0405 fold |
| DLDEAGGSTGLLMDLAANEKAVHADFFNDFEDLFDDDDIQ [B 1, CSNAP residues 18-57] | 1.1704 fold of C-CSNAP (A1) | – | – | 0.9126 fold |

| Sequence | Average fold change, intensities as fold of C-CSNAP (A1) [1] | Average fold change [2, 3] | Average fold change [1] | Average fold change [2, 4] |
| --- | --- | --- | --- | --- |
| DWFNDFEDLFDDDDIQ [Position C12, C-CSNAP, Phe to Trp substitution F43W] | 0.7756 fold of C-CSNAP (A1) | 1.2910 fold of C-CSNAP (A1) | – | – |
| DWFNDFEDLWDDDDIQ [Position C18, C-CSNAP, Phe to Trp substitution F43,51W] | 0.5534 fold of C-CSNAP (A1) | 1.2485 fold of C-CSNAP (A1) | – | – |
| DWFNDWEDLFDDDDIQ [Position C17, C-CSNAP, Phe to Trp substitution F43,47W] | 0.7959 fold of C-CSNAP (A1) | 1.5247 fold of C-CSNAP (A1) | – | – |
| DWFNDWEDLWDDDDIQ [Position C23, C-CSNAP, Phe to Trp substitution F43,47,51W] | 0.4941 fold of C-CSNAP (A1) | 0.6854 fold of C-CSNAP (A1) | – | – |
| DWWNDFEDLFDDDDIQ [Position C16, C-CSNAP, Phe to Trp substitution F43,44W] | 0.7427 fold of C-CSNAP (A1) | 1.3233 fold of C-CSNAP (A1) | – | – |
| DWWNDWEDLWDDDDIQ [D 2, C-CSNAP, Phe to Trp substitution F43,44,47,51W] | 0.6800 fold of C-CSNAP (A1) | 0.9168 fold of C-CSNAP (A1) | – | – |
| EAGGSTGLLMDLAANEKAVHADFFNDFEDLFDDDDIQ [Position A22, CSNAP residues 21-57] | 1.1428 fold of C-CSNAP (A1) | – | – | 1.3163 fold |
| EFFNDFEDLFDDDEIQ [Position D15, C-CSNAP, Asp to Glu substitution D42,55E] | 0.7777 fold of C-CSNAP (A1) | 1.0098 fold of C-CSNAP (A1) | – | – |
| EFFNDFEDLFDDEDIQ [Position D14, C-CSNAP, Asp to Glu substitution D42,54E] | 0.7060 fold of C-CSNAP (A1) | 1.0310 fold of C-CSNAP (A1) | – | – |
| EFFNDFEDLFDEDDIQ [Position D13, C-CSNAP, Asp to Glu substitution D42,53E] | 0.7560 fold of C-CSNAP (A1) | 1.1346 fold of C-CSNAP (A1) | – | – |
| EFFNDFEDLFEEDEIQ [D42,52,53,55E] | – | 1.0660 fold of C-CSNAP (A1) | 0.6502 fold | – |
| EFFNDFEDLFEEEDIQ [D42,52,53,54E] | – | 1.1111 fold of C-CSNAP (A1) | 0.7432 fold | – |
| EFFNDFEELFDDDDIQ [Position D11, C-CSNAP, Asp to Glu substitution D42,49E] | 0.8480 fold of C-CSNAP (A1) | 1.0773 fold of C-CSNAP (A1) | – | – |
| EFFNDFEELFDDDEIQ [Position E12, C-CSNAP, Asp to Glu substitution D42,49,55E] | 0.6694 fold of C-CSNAP (A1) | 0.9711 fold of C-CSNAP (A1) | – | – |
| EFFNDFEELFDDEDIQ [Position E11, C-CSNAP, Asp to Glu substitution D42,49,54E] | 0.6850 fold of C-CSNAP (A1) | 0.8932 fold of C-CSNAP (A1) | – | – |
| EFFNDFEELFDEDDIQ [Position E10, C-CSNAP, Asp to Glu substitution D42,49,53E] | 0.6945 fold of C-CSNAP (A1) | 1.1579 fold of C-CSNAP (A1) | – | – |
| EFFNDFEELFEDDDIQ [E 9, C-CSNAP, Asp to Glu substitution D42,49,52E] | 0.6782 fold of C-CSNAP (A1) | 1.0112 fold of C-CSNAP (A1) | – | – |
| EFFNDFEELFEDDEIQ [D42,49,52,55E] | – | 0.9030 fold of C-CSNAP (A1) | 0.7529 fold | – |
| EFFNDFEELFEDEDIQ [D42,49,52,54E] | – | 1.0950 fold of C-CSNAP (A1) | 0.7100 fold | – |
| EFFNDFEELFEEDDIQ [D42,49,52,53E] | – | 0.8283 fold of C-CSNAP (A1) | 0.7257 fold | – |
| EFFNDFEELFEEEEIQ [D42,49,52,53,54,55E] | – | 0.9207 fold of C-CSNAP (A1) | 0.6132 fold | – |
